Reference: patent publication US20080051350A1, “Therapeutic Use for a Group of Sulphated Polysaccharides” (Bioiberica, S.A., priority 2004, published 2008)
Marks after values point to notes of the source that are not given here.

Tests used:
Format in all cases: cell-based
[1] = system: Human articular chondrocytes; experiment: Synthesis of extracellular aggrecans determined by incorporation of 35S in primary culture of human chondrocytes in agarose gel; settings: for 35S incorporated into the aggrecans associated with the cells / 35S incorporated into the inter-territorial matrix's aggrecans / 35S incorporated into the re-synthesised aggrecans (total): 48 h
Procedure: Human articular chondrocytes were isolated following the methods described by W. T. Green Jr. (Clin. Orthop., 75, 248-260 (1971)) and K. E. Kuettner et al. (J. Cell. Biol., 93, 743-750 (1982)).
These chondrocytes were cultured in an agarose gel following the method described by P. D. Benya et al. (Cell, 30, 215-224, (1982)), and modified by G. Verbruggen et al. (Clin. Exp. Rheumatol., 8, 371-378 (1990)) and by M. Cornelissen et al. (J. Tiss. Cult. Meth., 15, 139-146 (1993)).
The synthesis of aggrecans was determined by the incorporation of ^35S, using labelled sodium sulphate Na2^35SO4 as radioactive precursor. After two weeks of culture, 10 μCi/mL of radio-labelled precursor were introduced in the culture medium for 48 h, as was the compound to be assayed (inulin polysulphate in Chemical Example 1) at different concentrations (0.0, 0.1, 0.5, 1.0, 5.0 μg/mL).
The synthesised ^35S aggrecans once again partially accumulated in the intercellular agarose matrix or else were released in the incubation medium.
Once the incubation period ended, the agarose gel was mechanically broken down and subsequently digested by means of 3 mL of a 50 U/mL […] solution in a 0.067 M phosphate buffer, at pH 6.0, in the presence of proteinase inhibitors.
The suspension thus produced was centrifuged; the supernatant containing the inter-territorial matrix's ^35S aggrecans and the incubation medium containing the ^35S aggrecan metabolites released in the extracellular matrix were subsequently united by means of chromatography.
The residue, which contained the chondrocytes and the associated ^35S aggrecans, was treated for 48 hours with 1 mL of a 4.0 M guanidium chloride solution in a 0.05M acetate buffer at pH 5.8 containing the proteinase inhibitors.
The purpose of this operation is to extract the ^35S aggrecans associated with the cells. The solution produced was centrifuged in order to separate the cells from the supernatant, which was subsequently separated by means of chromatography. The chromatography operations for the different fractions produced were performed on Sephadex G25 gel in a phosphate buffer pH 6.8 containing 0.01 M of Na2SO4, in order to separate the ^35S aggrecans from the free Na2^35SO4.
The radioactivity of each of the macromolecular eluants produced was measured and related to the number of chondrocytes contained in the initial culture, expressed in pg of ^35SO4 incorporated into the aggrecans, per million chondrocytes per hour.

[2] = system: rat chondrosarcoma cell line called LTC; experiment: Inhibition of aggrecan degradation induced by IL-1α (Western Blot, anti-aggrecan antibody G1 / NITGE); settings: 100 μg/mL, in the presence or not of IL-1α (10 ng/mL), 4 days, FIG. 1
Procedure: The assays were performed on chondrocyte cultures from a rat chondrosarcoma cell line called LTC.
The LTC cells were kept in a monolayer culture in a Gibco DMEM medium (Dulbecco's Modification of Eagle's Medium) (containing 4.5 g/L of glucose) supplemented with sodium bicarbonate (3.7 g/L), glutamine (2 mM), ascorbic acid (50 mg/L), gentamicin (50 mg/L), and bovine fetal serum Hyalone (10%), at pH 7.4.
The confluent LTC cell cultures were trypsinised and 40,000 cells per 0.5 mL of culture were seeded in 48-well plates. They were maintained for 5 days, during which time they deposited 15-30 μg of glycosaminoglycans (GAG) in each well.
The medium was separated, the cell membranes were washed by adding 5×1 mL of a catabolic medium {DMEM+4.5 g/L glucose supplemented with sodium bicarbonate (3.7 g/L), glutamine (2 mM), and 10 ng/mL of IL-1α (interleukin-1α) at pH 7.4). […]
For the Western Blot, 20 μL of 50 mM tris-acetate at pH 7.3 were added to each well. […] 25 μL-fractions of the supernatant were separated by electrophoresis (gel gradient 8-12% SDS PAGE) and analysed by means of a Western Blot using anti-aggrecan antibody G1. […] The antiserum was used at a 1:5,000 dilution and the peroxidase-conjugated goat anti-(rabbit IgG) was detected by means of the Amersham ECL Kit.

[3] = system: human articular chondrocytes treated with interleukin-1 (IL-1); experiment: Aggrecans associated with IL-1-treated chondrocytes, measured by immunocytochemistry / flux cytometry; settings: for Mean fluorescence intensity in the chondrocytes after labelling of aggrecan, M ± SD: one week of culture
Procedure: The human articular chondrocytes were isolated and cultured following the previously described methods.
The accumulation of aggrecans associated with the chondrocytes was measured, after a week of culture, by means of the immunocytochemistry technique described by L. Wang et al. (Osteoarthritis Cart., 9, 248-260 (2001)). The chondrocytes were treated with interleukin-1 (IL-1) in order to simulate a situation of inflammation and catabolism. The inulin polysulphate in Chemical Example 1 was added jointly with IL-1.
Once the incubation period ended, the chondrocytes were released from the agarose gel following the described method. The chondrocytes and the associated aggrecans were studied by means of flux cytometry using monoclonal antibodies specifically directed against the aggrecans' proteic part.

[4] = Donor F45, IL-1 + IPS 0.5 μg/mL
[5] = Donor F45, IL-1 + IPS 1.0 μg/mL
[6] = Donor F45, IL-1 + IPS 2.5 μg/mL
[7] = Donor M32, IL-1 + IPS 1.0 μg/mL
[8] = Donor M32, IL-1 + IPS 2.5 μg/mL
[9] = Donor M32, IL-1 + IPS 5.0 μg/mL

## Inulin Polysulphate Sodium Salt [IPS]
[1]; 35S incorporation, concentrations 0.1-5.0 μg/mL tested
  Concentration of optimum activity on aggrecan synthesis: about 0.5 μg/mL
[1]; IPS 0.1 μg/mL
  % Total: aggrecans associated with the cells with respect to the total quantity of aggrecans: 23.5%
  % Total: inter-territorial matrix's aggrecans with respect to the total quantity of aggrecans: 66.2%
  % Total: re-synthesised aggrecans with respect to the total quantity of aggrecans: 100%
  % change with respect to the non-treated control, aggrecans associated with the cells: 15.1%
  % change with respect to the non-treated control, re-synthesised aggrecans (total): 2.9%
  % change with respect to the untreated control, inter-territorial matrix's aggrecans: 1.4%
  35S incorporated into the aggrecans associated with the cells: 2,737 pg ^35S/10^6 cells/h
  35S incorporated into the inter-territorial matrix's aggrecans: 7,818 pg ^35S/10^6 cells/h
  35S incorporated into the re-synthesised aggrecans (total): 11,756 pg ^35S/10^6 cells/h
[1]; IPS 0.5 μg/mL
  % Total: aggrecans associated with the cells with respect to the total quantity of aggrecans: 18.4%
  % Total: inter-territorial matrix's aggrecans with respect to the total quantity of aggrecans: 70.7%
  % Total: re-synthesised aggrecans with respect to the total quantity of aggrecans: 100%
  % change with respect to the non-treated control, aggrecans associated with the cells: 28.8* %
  % change with respect to the non-treated control, re-synthesised aggrecans (total): 51.5* %
  % change with respect to the untreated control, inter-territorial matrix's aggrecans: 60.6%
  35S incorporated into the aggrecans associated with the cells: 3,064* pg ^35S/10^6 cells/h
  35S incorporated into the inter-territorial matrix's aggrecans: 12,383 pg ^35S/10^6 cells/h
  35S incorporated into the re-synthesised aggrecans (total): 17,312* pg ^35S/10^6 cells/h
[1]; IPS 1.0 μg/mL
  % Total: aggrecans associated with the cells with respect to the total quantity of aggrecans: 17.9%
  % Total: inter-territorial matrix's aggrecans with respect to the total quantity of aggrecans: 70.7%
  % Total: re-synthesised aggrecans with respect to the total quantity of aggrecans: 100%
  % change with respect to the non-treated control, aggrecans associated with the cells: 11.9%
  % change with respect to the non-treated control, re-synthesised aggrecans (total): 33.7* %
  % change with respect to the untreated control, inter-territorial matrix's aggrecans: 41.2* %
  35S incorporated into the aggrecans associated with the cells: 2,662 pg ^35S/10^6 cells/h
  35S incorporated into the inter-territorial matrix's aggrecans: 10,887* pg ^35S/10^6 cells/h
  35S incorporated into the re-synthesised aggrecans (total): 15,281* pg ^35S/10^6 cells/h
[1]; IPS 5.0 μg/mL
  % Total: aggrecans associated with the cells with respect to the total quantity of aggrecans: 17.4%
  % Total: inter-territorial matrix's aggrecans with respect to the total quantity of aggrecans: 67.9%
  % Total: re-synthesised aggrecans with respect to the total quantity of aggrecans: 100%
  % change with respect to the non-treated control, aggrecans associated with the cells: 14.2%
  % change with respect to the non-treated control, re-synthesised aggrecans (total): 3.0%
  % change with respect to the untreated control, inter-territorial matrix's aggrecans: 8.2%
  35S incorporated into the aggrecans associated with the cells: 2,041 pg ^35S/10^6 cells/h
  35S incorporated into the inter-territorial matrix's aggrecans: 8,340 pg ^35S/10^6 cells/h
  35S incorporated into the re-synthesised aggrecans (total): 12,106 pg ^35S/10^6 cells/h
[2]
  Effect on aggrecan degradation (band of aggrecan fragments labelled with antibody NITGE G1): aggrecan degradation is inhibited
[3]; [4]
  % Change with respect to the group treated with IL-1 (IL-1 = 100.0): 112.7* %
  Mean fluorescence intensity in the chondrocytes after labelling of aggrecan, M ± SD: 20.4 ± 0.2
[3]; [5]
  % Change with respect to the group treated with IL-1 (IL-1 = 100.0): 147.0* %
  Mean fluorescence intensity in the chondrocytes after labelling of aggrecan, M ± SD: 26.6 ± 0.1
[3]; [6]
  % Change with respect to the group treated with IL-1 (IL-1 = 100.0): 215.5* %
  Mean fluorescence intensity in the chondrocytes after labelling of aggrecan, M ± SD: 39.0 ± 0.2
[3]; [7]
  % Change with respect to the group treated with IL-1 (IL-1 = 100.0): 116.2* %
  Mean fluorescence intensity in the chondrocytes after labelling of aggrecan, M ± SD: 20.8 ± 1.2
[3]; [8]
  % Change with respect to the group treated with IL-1 (IL-1 = 100.0): 120.7* %
  Mean fluorescence intensity in the chondrocytes after labelling of aggrecan, M ± SD: 21.6 ± 1.1
[3]; [9]
  % Change with respect to the group treated with IL-1 (IL-1 = 100.0): 139.7* %
  Mean fluorescence intensity in the chondrocytes after labelling of aggrecan, M ± SD: 25.0 ± 1.4
